Test results: patent US8012952B2, “Cationic 17 α-substituted-estradiol derivatives useful as anti-cancer agent” (Council of Scientific & Industrial Research, priority 2007, dated 2011)

Experiments:
MDA-MB-468 cells = assay: MTT cell viability assay, MDA-MB-468 cells; settings: Homo sapiens, MDA-MB-468, read-out: in-vitro percent cell viability
Experimental: (§1) The in vitro cytotoxicities of the derivative A to various cancer and non-cancer cells across different molar concentrations (0.5 μM-50 μM) were performed. The cancer cells were chosen from various origins, such as breast cancer cells MCF-7 (primary carcinoma), T47D (ductal carcinoma), MDA-MB-468 (secondary, metastatic); cervical cancer cell Hela; lung cancer cell A549 (metastatic). […] In one set of experiments, the cells were treated at different concentrations of derivative A for 4 h, washed and kept in serum media for 6 days to observe cellular toxicity using MTT assay (FIGS. 1, 2, 4, 6A and 6B), except for one cell line where the assay was done after 4 days (FIG. 3). In another set of experiment, the cells were treated continuously for 48 h in presence of serum media and cellular toxicities were assayed promptly (FIG. 5).
(§2) Cells and Cell Culture. CHO (Chinese hamster ovary), COS-1 (African Green monkey kidney cells) HeLa (Human cervical carcinoma), MCF-7 (Human breast primary adenocarcinoma), T47D (Human breast ductal carcinoma), MDA-MB-468 (Human breast secondary adenocarcinoma), and A-549 (Human lung carcinoma) cell lines were procured from the National Centre for Cell Sciences (NCCS), Pune, India and were mycoplasma free. […] The cells were trypsinized, counted, subcultured in 96-well plates for viability studies. […]

T47D cells = assay: MTT cell viability assay, T47D cells; settings: Homo sapiens, read-out: in-vitro percent cell viability
Experimental: as §1, §2

Hela cells = assay: MTT cell viability assay, Hela cells; settings: Homo sapiens, read-out: in-vitro percent cell viability
Experimental: as §1, §2

MCF-7 cells = assay: MTT cell viability assay, MCF-7 cells; settings: Homo sapiens, MCF7, read-out: in-vitro percent cell viability
Experimental: as §1, §2

Measured: viability at 50 µM

CCCCCCCC[N+](C)(CCCCCCCC)CCC[C@]1(O)CCC2C3CCc4cc(O)ccc4C3CC[C@@]21C (stereo partly drawn) [Derivative 1, 17α-[3-N,N-dioctyl(methyl)aminopropane]-17β-Estradiol]
2 to 10%: all assays above
